Laboratory results as given in ChEMBL document CHEMBL5614467, “Structure-Activity Relationship of Truncated 4'-Selenonucleosides: A3 Adenosine Receptor Activity and Binding Selectivity” (ACS Med Chem Lett, 2024).

What was measured:
[1] = target: T1, Adenosine receptor A1 (Homo sapiens) (UniProt P30542); assay: Displacement of [3H]DPCPX from human adenosine A1 receptor extracted from CHO cell membrane assessed as inhibition of [3H]DPCPX binding at 10 uM incubated for 60 mins by microplate beta scintillation counter relative to control; type: cell membranes
T1 sequence (whole entry): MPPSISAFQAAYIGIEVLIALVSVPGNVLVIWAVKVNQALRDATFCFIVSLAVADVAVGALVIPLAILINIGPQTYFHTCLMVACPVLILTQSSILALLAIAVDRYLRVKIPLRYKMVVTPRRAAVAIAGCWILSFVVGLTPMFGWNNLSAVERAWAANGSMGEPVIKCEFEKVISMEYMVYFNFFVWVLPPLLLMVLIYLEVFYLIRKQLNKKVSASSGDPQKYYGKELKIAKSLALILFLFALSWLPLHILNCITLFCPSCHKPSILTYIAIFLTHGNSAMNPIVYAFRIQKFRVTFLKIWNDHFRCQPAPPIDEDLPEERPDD

[2] = target: Adenosine receptor A2a (Homo sapiens) (UniProt P29274); assay: Displacement of [3H]ZM241385 from human adenosine A2A receptor extracted from human HeLa cell membrane assessed as inhibition of [3H]ZM241385 binding at 10 uM incubated for 30 mins by microplate beta scintillation counter relative to control; type: cell membranes
Sequence of Adenosine receptor A2a (Homo sapiens) (P29274 whole entry): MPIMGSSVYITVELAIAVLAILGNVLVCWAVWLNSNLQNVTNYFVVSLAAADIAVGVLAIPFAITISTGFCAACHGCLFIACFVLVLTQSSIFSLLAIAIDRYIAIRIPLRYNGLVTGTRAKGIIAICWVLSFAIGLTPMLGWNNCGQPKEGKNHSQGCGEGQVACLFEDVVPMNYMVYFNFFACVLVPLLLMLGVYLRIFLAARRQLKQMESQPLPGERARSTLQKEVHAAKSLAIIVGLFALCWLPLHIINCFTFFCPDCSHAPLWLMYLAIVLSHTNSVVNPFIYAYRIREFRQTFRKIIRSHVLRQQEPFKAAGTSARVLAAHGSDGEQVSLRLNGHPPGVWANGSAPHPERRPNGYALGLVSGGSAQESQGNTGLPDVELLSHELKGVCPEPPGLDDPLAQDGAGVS

[3] = target: T2, Adenosine receptor A2b (Homo sapiens) (UniProt P29275); assay: Displacement of [3H]DPCPX from human adenosine A2B receptor extracted from HEK293 cell membrane assessed as inhibition of [3H]DPCPX binding at 10 uM incubated for 30 mins by microplate beta scintillation counter relative to control; type: cell membranes
T2 sequence (whole entry): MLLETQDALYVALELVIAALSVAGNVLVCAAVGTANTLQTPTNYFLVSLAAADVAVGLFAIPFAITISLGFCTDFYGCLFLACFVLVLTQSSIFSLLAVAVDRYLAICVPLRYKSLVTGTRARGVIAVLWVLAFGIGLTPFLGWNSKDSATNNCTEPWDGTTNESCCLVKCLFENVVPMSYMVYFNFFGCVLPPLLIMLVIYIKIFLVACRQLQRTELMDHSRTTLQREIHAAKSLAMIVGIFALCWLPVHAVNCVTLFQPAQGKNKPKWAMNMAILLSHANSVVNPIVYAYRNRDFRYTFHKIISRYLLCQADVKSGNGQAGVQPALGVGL

Adenosine receptor A3 [4] = target: T3, Adenosine receptor A3 (Homo sapiens, UniProt P0DMS8); assay: Displacement of [3H]NECA from human adenosine A3 receptor extracted from human HeLa cell membrane assessed as inhibition constant incubated for 180 mins by microplate scintillation counter; type: cell membranes
T3 sequence (P0DMS8 whole entry): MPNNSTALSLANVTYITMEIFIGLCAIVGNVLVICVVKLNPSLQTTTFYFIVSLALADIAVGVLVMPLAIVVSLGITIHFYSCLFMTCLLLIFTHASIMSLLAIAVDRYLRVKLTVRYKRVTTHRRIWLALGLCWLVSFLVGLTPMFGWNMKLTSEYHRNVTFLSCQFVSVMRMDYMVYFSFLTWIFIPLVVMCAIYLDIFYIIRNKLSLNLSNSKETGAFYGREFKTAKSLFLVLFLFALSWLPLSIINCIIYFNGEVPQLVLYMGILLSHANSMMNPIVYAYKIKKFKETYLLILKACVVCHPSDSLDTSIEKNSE

Adenosine receptor A3 [5] = target: T3, Adenosine receptor A3; assay: Displacement of [125I]iodo-AB-MECA from human adenosine A3 receptor expressed in CHO cells assessed as inhibition constant; type: cell-based
Adenosine receptor A3 [6] = target: T3, Adenosine receptor A3; assay: Binding affinity to human adenosine A3 receptor assessed as inhibition constant
[7] = target: T4, Adenosine receptor A3 (Homo sapiens) (UniProt P0DMS8); assay: Antagonist activity at human adenosine A3 receptor expressed in CHO cells assessed as inhibition of cAMP production preincubated for 15 mins followed by NECA addition for 10 mins and measured 5 mins after forskolin addition by enzyme immunoassay relative to control; type: functional, cell-based; details: time 30.0 min
T4 sequence (whole entry): T3 sequence (P0DMS8 whole entry)

[8] = target: T4, Adenosine receptor A3 (Homo sapiens); assay: Partial agonist activity at human adenosine A3 receptor expressed in CHO cells assessed as cAMP production preincubated for 15 mins followed by forskolin addition and measured after 5 mins by enzyme immunoassay relative to control; type: functional, cell-based; details: filed as partial agonist, time 20.0 min

Compound	inhibition [1]	inhibition [2]	inhibition [3]	Ki (Adenosine receptor A3 [4])	Ki (Adenosine receptor A3 [5])	Ki (Adenosine receptor A3 [6])	inhibition [7]	Activity [8]
CCNc1nc(Cl)nc2c1ncn2[C@@H]1[Se]C[C@@H](O)[C@H]1O	31%	3%	18%	5.2 nM	–	–	–	–
CNC(=O)C1S[C@@H](n2cnc3c(Nc4cccc(I)c4)nc(Cl)nc32)[C@H](O)[C@@H]1O (stereo partly specified)	–	–	–	–	0.38 nM	–	–	–
O[C@@H]1[C@H](O)C[Se][C@H]1n1cnc2c(NC3CCCC3)nc(Cl)nc21	54%	13%	37%	16.9 nM	–	–	–	–
CNC(=O)C1O[C@@H](n2cnc3c(Nc4cccc(I)c4)nc(Cl)nc32)[C@H](O)[C@@H]1O (stereo partly specified)	–	–	–	–	–	1.4 nM	–	–
O[C@@H]1[C@H](O)C[Se][C@H]1n1cnc2c(NC3CC3)ncnc21	20%	9%	15%	13.6 nM	–	–	–	–
O[C@@H]1[C@H](O)C[Se][C@H]1n1cnc2c(NCc3cccc(I)c3)ncnc21	25%	19%	20%	43.2 nM	–	–	–	–
O[C@@H]1[C@H](O)C[Se][C@H]1n1cnc2c(NCc3cccc(I)c3)nc(Cl)nc21	57%	24%	67%	109 nM	–	–	–	–
O[C@@H]1[C@H](O)C[Se][C@H]1n1cnc2c(NC3CC3)nc(Cl)nc21	26%	6%	29%	5.7 nM	–	–	11%	87%
Nc1nc(Cl)nc2c1ncn2[C@@H]1[Se]C[C@@H](O)[C@H]1O	22%	12%	35%	358 nM	–	–	–	–
O[C@@H]1[C@H](O)C[Se][C@H]1n1cnc2c(NCc3cccc(Br)c3)nc(Cl)nc21	62%	35%	43%	38.4 nM	–	–	–	–
Nc1ncnc2c1ncn2[C@@H]1[Se]C[C@@H](O)[C@H]1O	10%	33%	25%	238 nM	–	–	–	–
CCNc1ncnc2c1ncn2[C@@H]1[Se]C[C@@H](O)[C@H]1O	25%	2%	7%	17.5 nM	–	–	–	–
O[C@@H]1[C@H](O)C[Se][C@H]1n1cnc2c(NCc3cccc(Cl)c3)ncnc21	32%	25%	30%	32.5 nM	–	–	–	–
O[C@@H]1[C@H](O)C[Se][C@H]1n1cnc2c(NCc3cccc(Br)c3)ncnc21	39%	28%	37%	20.9 nM	–	–	–	–
O[C@@H]1[C@H](O)C[Se][C@H]1n1cnc2c(NCc3cccc(Cl)c3)nc(Cl)nc21	66%	29%	41%	33.2 nM	–	–	–	–
O[C@@H]1[C@H](O)C[Se][C@H]1n1cnc2c(NC3CCCC3)ncnc21	39%	16%	7%	36.6 nM	–	–	–	–
O[C@@H]1[C@H](O)C[Se][C@H]1n1cnc2c(NCc3cccc(F)c3)ncnc21	12%	2%	8%	121 nM	–	–	–	–
CNc1nc(Cl)nc2c1ncn2[C@@H]1[Se]C[C@@H](O)[C@H]1O	14%	3%	28%	25.2 nM	–	–	–	–
CNc1ncnc2c1ncn2[C@@H]1[Se]C[C@@H](O)[C@H]1O	7%	2%	1%	31.1 nM	–	–	–	–
O[C@@H]1[C@H](O)C[Se][C@H]1n1cnc2c(NCc3cccc(F)c3)nc(Cl)nc21	23%	7%	22%	97.1 nM	–	–	–	–
